Reference: PubChem BioAssay (NCI)
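Assay format: 96-well plates, 48-hour exposure. The concentration for full growth arrest is given as TGI.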

What was measured:
Assay in all cases: NCI anticancer screen, dose series, 48 h
786-0 renal = test system: 786-0 renal
A498 renal = test system: A498 renal
A549 NSCLC = test system: A549 NSCLC
ACHN renal = test system: ACHN renal
CAKI-1 renal = test system: CAKI-1 renal
CCRF-CEM leukemia = test system: CCRF-CEM leukemia
COLO 205 colon = test system: COLO 205 colon
DLD-1 colon = test system: DLD-1 colon
DMS 114 small cell lung = test system: DMS 114 small cell lung
DMS 273 small cell lung = test system: DMS 273 small cell lung
EKVX NSCLC = test system: EKVX NSCLC
HCC-2998 colon = test system: HCC-2998 colon
HCT-116 colon = test system: HCT-116 colon
HCT-15 colon = test system: HCT-15 colon
HL-60(TB) leukemia = test system: HL-60(TB) leukemia
HOP-18 NSCLC = test system: HOP-18 NSCLC
HOP-62 NSCLC = test system: HOP-62 NSCLC
HOP-92 NSCLC = test system: HOP-92 NSCLC
HT29 colon = test system: HT29 colon
IGROV1 ovarian = test system: IGROV1 ovarian
K-562 leukemia = test system: K-562 leukemia
KM12 colon = test system: KM12 colon
KM20L2 colon = test system: KM20L2 colon
LOX IMVI melanoma = test system: LOX IMVI melanoma
LXFL 529 NSCLC = test system: LXFL 529 NSCLC
M14 melanoma = test system: M14 melanoma
M19-MEL melanoma = test system: M19-MEL melanoma
MALME-3M melanoma = test system: MALME-3M melanoma
MOLT-4 leukemia = test system: MOLT-4 leukemia
NCI-H226 lung = test system: NCI-H226 lung
NCI-H23 lung = test system: NCI-H23 lung
NCI-H460 lung = test system: NCI-H460 lung
NCI-H522 lung = test system: NCI-H522 lung
OVCAR-3 ovarian = test system: OVCAR-3 ovarian
OVCAR-4 ovarian = test system: OVCAR-4 ovarian
OVCAR-5 ovarian = test system: OVCAR-5 ovarian
OVCAR-8 ovarian = test system: OVCAR-8 ovarian
RPMI-8226 leukemia = test system: RPMI-8226 leukemia
RXF 393 renal = test system: RXF 393 renal
RXF-631 renal = test system: RXF-631 renal
SF-268 CNS = test system: SF-268 CNS
SF-295 CNS = test system: SF-295 CNS
SF-539 CNS = test system: SF-539 CNS
SK-MEL-2 melanoma = test system: SK-MEL-2 melanoma
SK-MEL-28 melanoma = test system: SK-MEL-28 melanoma
SK-MEL-5 melanoma = test system: SK-MEL-5 melanoma
SK-OV-3 ovarian = test system: SK-OV-3 ovarian
SN12C renal = test system: SN12C renal
SNB-19 CNS = test system: SNB-19 CNS
SNB-75 CNS = test system: SNB-75 CNS
SNB-78 CNS = test system: SNB-78 CNS
SR leukemia = test system: SR leukemia
TK-10 renal = test system: TK-10 renal
U251 CNS = test system: U251 CNS
UACC-257 melanoma = test system: UACC-257 melanoma
UACC-62 melanoma = test system: UACC-62 melanoma
UO-31 renal = test system: UO-31 renal
XF 498 CNS = test system: XF 498 CNS
SW-620 colon = test system: SW-620 colon

CCO/C=C/C(C)C1(C(=O)OCC)CCCCC1=O (stereo not given)
TGI (786-0 renal): > 100 µM
TGI (A498 renal): > 100 µM
TGI (A549 NSCLC): > 100 µM
TGI (ACHN renal): > 100 µM
TGI (CAKI-1 renal): > 100 µM
TGI (CCRF-CEM leukemia): > 100 µM
TGI (COLO 205 colon): > 100 µM
TGI (DLD-1 colon): > 100 µM
TGI (DMS 114 small cell lung): > 100 µM
TGI (DMS 273 small cell lung): 47 µM
TGI (EKVX NSCLC): > 100 µM
TGI (HCC-2998 colon): > 100 µM
TGI (HCT-116 colon): > 100 µM
TGI (HCT-15 colon): > 100 µM
TGI (HL-60(TB) leukemia): > 100 µM
TGI (HOP-18 NSCLC): > 100 µM
TGI (HOP-62 NSCLC): > 100 µM
TGI (HOP-92 NSCLC): > 100 µM
TGI (HT29 colon): > 100 µM
TGI (IGROV1 ovarian): > 100 µM
TGI (K-562 leukemia): > 100 µM
TGI (KM12 colon): > 100 µM
TGI (KM20L2 colon): > 100 µM
TGI (LOX IMVI melanoma): > 100 µM
TGI (LXFL 529 NSCLC): > 100 µM
TGI (M14 melanoma): > 100 µM
TGI (M19-MEL melanoma): > 100 µM
TGI (MALME-3M melanoma): > 100 µM
TGI (MOLT-4 leukemia): > 100 µM
TGI (NCI-H226 lung): > 100 µM
TGI (NCI-H23 lung): > 100 µM
TGI (NCI-H460 lung): > 100 µM
TGI (NCI-H522 lung): > 100 µM
TGI (OVCAR-3 ovarian): > 100 µM
TGI (OVCAR-4 ovarian): > 100 µM
TGI (OVCAR-5 ovarian): > 100 µM
TGI (OVCAR-8 ovarian): > 100 µM
TGI (RPMI-8226 leukemia): > 100 µM
TGI (RXF 393 renal): > 100 µM
TGI (RXF-631 renal): > 100 µM
TGI (SF-268 CNS): > 100 µM
TGI (SF-295 CNS): > 100 µM
TGI (SF-539 CNS): > 100 µM
TGI (SK-MEL-2 melanoma): > 100 µM
TGI (SK-MEL-28 melanoma): > 100 µM
TGI (SK-MEL-5 melanoma): > 100 µM
TGI (SK-OV-3 ovarian): > 100 µM
TGI (SN12C renal): > 100 µM
TGI (SNB-19 CNS): > 100 µM
TGI (SNB-75 CNS): > 100 µM
TGI (SNB-78 CNS): > 100 µM
TGI (SR leukemia): > 100 µM
TGI (TK-10 renal): > 100 µM
TGI (U251 CNS): > 100 µM
TGI (UACC-257 melanoma): > 100 µM
TGI (UACC-62 melanoma): > 100 µM
TGI (UO-31 renal): > 100 µM
TGI (XF 498 CNS): > 100 µM

Clc1ccc(Cc2nc3ccccc3s2)c(Cl)c1
TGI (786-0 renal): 27.8 µM
TGI (A498 renal): 41.5 µM
TGI (A549 NSCLC): 42.1 µM
TGI (ACHN renal): 34.9 µM
TGI (CAKI-1 renal): 31.2 µM
TGI (CCRF-CEM leukemia): 22.7 µM
TGI (COLO 205 colon): 31.5 µM
TGI (DLD-1 colon): 29 µM
TGI (DMS 114 small cell lung): 36.5 µM
TGI (DMS 273 small cell lung): 33.6 µM
TGI (EKVX NSCLC): 42.1 µM
TGI (HCC-2998 colon): 33.4 µM
TGI (HCT-15 colon): 36.5 µM
TGI (HL-60(TB) leukemia): 35.3 µM
TGI (HOP-18 NSCLC): 31.4 µM
TGI (HOP-62 NSCLC): 32.9 µM
TGI (HT29 colon): 40.3 µM
TGI (IGROV1 ovarian): 30.6 µM
TGI (K-562 leukemia): 36.2 µM
TGI (KM12 colon): 34.9 µM
TGI (KM20L2 colon): 52 µM
TGI (LOX IMVI melanoma): 31.4 µM
TGI (LXFL 529 NSCLC): 31.1 µM
TGI (M14 melanoma): 31.3 µM
TGI (M19-MEL melanoma): 30.5 µM
TGI (MALME-3M melanoma): 30.9 µM
TGI (MOLT-4 leukemia): 41.2 µM
TGI (NCI-H226 lung): 39.1 µM
TGI (NCI-H460 lung): 41.4 µM
TGI (NCI-H522 lung): 30.9 µM
TGI (OVCAR-3 ovarian): 33 µM
TGI (OVCAR-4 ovarian): 27 µM
TGI (OVCAR-5 ovarian): 38.7 µM
TGI (OVCAR-8 ovarian): 38.4 µM
TGI (RPMI-8226 leukemia): 48.5 µM
TGI (RXF 393 renal): 36 µM
TGI (RXF-631 renal): 30.1 µM
TGI (SF-268 CNS): 30.5 µM
TGI (SF-295 CNS): 31.8 µM
TGI (SF-539 CNS): 12 µM
TGI (SK-MEL-2 melanoma): 32.7 µM
TGI (SK-MEL-28 melanoma): 33.1 µM
TGI (SK-MEL-5 melanoma): 32.6 µM
TGI (SK-OV-3 ovarian): 43.3 µM
TGI (SN12C renal): 30.3 µM
TGI (SNB-19 CNS): 49.1 µM
TGI (SNB-75 CNS): 34.5 µM
TGI (SW-620 colon): 46.4 µM
TGI (TK-10 renal): 38.4 µM
TGI (UACC-257 melanoma): 34.8 µM
TGI (UACC-62 melanoma): 28.9 µM
TGI (UO-31 renal): 30 µM
TGI (XF 498 CNS): 26.5 µM

Nc1cccc2c1C(=O)c1cccc(N)c1C2=O
TGI (786-0 renal): > 100 µM
TGI (A498 renal): > 100 µM
TGI (A549 NSCLC): > 100 µM
TGI (ACHN renal): > 100 µM
TGI (CAKI-1 renal): > 100 µM
TGI (CCRF-CEM leukemia): > 100 µM
TGI (COLO 205 colon): > 100 µM
TGI (DLD-1 colon): > 100 µM
TGI (DMS 273 small cell lung): > 100 µM
TGI (EKVX NSCLC): > 100 µM
TGI (HCC-2998 colon): > 100 µM
TGI (HCT-116 colon): > 100 µM
TGI (HCT-15 colon): > 100 µM
TGI (HOP-62 NSCLC): > 100 µM
TGI (HOP-92 NSCLC): > 100 µM
TGI (HT29 colon): > 100 µM
TGI (IGROV1 ovarian): > 100 µM
TGI (K-562 leukemia): > 100 µM
TGI (KM12 colon): > 100 µM
TGI (KM20L2 colon): > 100 µM
TGI (LOX IMVI melanoma): > 100 µM
TGI (LXFL 529 NSCLC): > 100 µM
TGI (M14 melanoma): > 100 µM
TGI (M19-MEL melanoma): > 100 µM
TGI (MALME-3M melanoma): > 100 µM
TGI (MOLT-4 leukemia): > 100 µM
TGI (NCI-H226 lung): > 100 µM
TGI (NCI-H23 lung): > 100 µM
TGI (NCI-H460 lung): > 100 µM
TGI (NCI-H522 lung): > 100 µM
TGI (OVCAR-3 ovarian): > 100 µM
TGI (OVCAR-4 ovarian): > 100 µM
TGI (OVCAR-5 ovarian): > 100 µM
TGI (OVCAR-8 ovarian): > 100 µM
TGI (RPMI-8226 leukemia): > 100 µM
TGI (RXF 393 renal): > 100 µM
TGI (RXF-631 renal): > 100 µM
TGI (SF-268 CNS): > 100 µM
TGI (SF-539 CNS): > 100 µM
TGI (SK-MEL-2 melanoma): > 100 µM
TGI (SK-MEL-28 melanoma): > 100 µM
TGI (SK-MEL-5 melanoma): > 100 µM
TGI (SK-OV-3 ovarian): > 100 µM
TGI (SN12C renal): > 100 µM
TGI (SNB-19 CNS): > 100 µM
TGI (SNB-75 CNS): > 100 µM
TGI (SNB-78 CNS): > 100 µM
TGI (SW-620 colon): > 100 µM
TGI (TK-10 renal): > 100 µM
TGI (U251 CNS): > 100 µM
TGI (UACC-257 melanoma): > 100 µM
TGI (UACC-62 melanoma): > 100 µM
TGI (UO-31 renal): > 100 µM
TGI (XF 498 CNS): 69.4 µM
